Data taken from patent US6620587B1, “Ribosome complexes as selection particles for in vitro display and evolution of proteins” (Discerna Limited, priority 1997, dated 2003).

Target: DB3 VH/K expressed as an ARM
Test: Inhibition by free steroids of DB3 VH/K ARM binding to progesterone-coated beads
Design: species or system mouse
Conditions: free steroid added to DB3 ARM mixture
Procedure: FIG. 6. […] This supports the correct folding of the antibody fragment on the ribosome.
The free steroid inibitors were added to the DB3 ARM mixture in order to block binding to the progesterone-coated beads. They are progesterone-11α-hemisuccinate (HMS) (P11), progesterone-3-carboxymethyloxime (P3); progesterone-6-HMS (P6) and progesterone-21-HMS (P21). The inhibition of free DB3 VH/K in an ELISA reaction is shown on the right, with the efficiency of the steroids in the order P11>P3>P6>P21.

CC(=O)[C@H]1CC[C@H]2[C@@H]3CCC4=CC(=O)CC[C@]4(C)[C@H]3[C@H](OC(=O)CCC(=O)O)C[C@]12C [progesterone-11α-HMS, progesterone-11α-hemisuccinate]
50% inhibition of DB3 VH/K ARM binding: 1 ng
IC50 (read-out: 50% inhibition of DB3 VH/K ARM binding): 2.5 nM
